The values that follow come from patent US20120177797A1, “TASTE ENHANCING AGENT” (J-OIL MILLS, INC., priority 2009, published 2012).

Holding throughout (format): in vivo
A short description of assay [1]: Sensory evaluation, intensity of sweetness in aqueous sucrose solution. The settings on record: additive-free = 3.0, scale 1.0-5.0.
Assay [2] in a line: Sensory evaluation, intensity of saltiness in aqueous NaCl solution. The settings on record: additive-free = 3.0. The method, then:
(§1) All sensory evaluation of taste was performed by individuals wearing a nose clip. The evaluation was performed by groups of three individuals, and the scores were averaged.
(§2) To a 0.2% aqueous sodium glutamate (MSG) solution (=umami), a 0.8% aqueous salt (NaCl) solution (=saltiness) and a 2% aqueous sucrose solution (=sweetness) were added 10 ppm linear aliphatic aldehydes having 3-12 carbon atoms shown in Table 1, respectively. Sensory evaluation was performed in which intensity of taste sensed when each of the aqueous solutions is introduced into the mouth is defined as “Intensity of umami” for the aqueous MSG solution, “Intensity of saltiness” for the aqueous NaCl solution and “Intensity of sweetness” for the aqueous sucrose solution. The score of aldehyde-free taste intensity was set to 3.0, and taste intensity upon addition of aldehyde was evaluated as follows. The results are shown in Table 1. • 1.0: Much weaker • 2.0: Weaker • 3.0: Similar • 4.0: Stronger • 5.0: Much Stronger
(§3) To a 0.2% aqueous sodium glutamate (MSG) solution (=umami), a 0.8% aqueous salt (NaCl) solution (=saltiness), a 2% aqueous sucrose solution (=sweetness) were added 10 ppm linear aliphatic alcohols having 2-11 carbon atoms, respectively. Sensory evaluation was performed in which intensity of taste sensed when each of the aqueous solutions is introduced into the mouth is defined as “Intensity of umami” for the aqueous MSG solution, “Intensity of saltiness” for the aqueous NaCl solution and “Intensity of sweetness” for the aqueous sucrose solution. The score of alcohol-free taste intensity was set to 3.0, and taste intensity upon addition was evaluated as follows. The results are shown in Table 3. • 1.0: Much weaker • 2.0: Weaker • 3.0: Similar • 4.0: Stronger • 5.0: Much stronger
(§4) To a 0.2% aqueous sodium glutamate (MSG) solution (=umami), a 0.8% aqueous salt (NaCl) solution (=saltiness), a 2% aqueous sucrose solution (=sweetness) were added 1 ppm n-hexanal and 1ppm 1-octene-3-ol each, respectively. Sensory evaluation was performed in which the intensity of taste sensed when each of the aqueous solutions is introduced into the mouth is defined as “Intensity of umami” for the aqueous MSG solution, “Intensity of saltiness” for the aqueous NaCl solution and “Intensity of sweetness” for the aqueous sucrose solution. The score of additive-free taste intensity was set to 3.0, and taste intensity upon addition was evaluated as follows. The results are shown in Table 9. • 1.0: Much weaker • 2.0: Weaker • 3.0: Similar • 4.0: Stronger • 5.0: Much stronger

A short description of assay [3]: Sensory evaluation whether salt usage can be reduced. Conditions: 10 ppm added to 0.5% aqueous NaCl solution; for Scores in sensory evaluation (taste intensity, saltiness): 0.5% NaCl solution = 3.0, scale 1.0-5.0. The method, then:
as §1
Evaluation was conducted to find whether salt usage can be reduced by the taste enhancing effects. To a 0.5% aqueous NaCl solution was added 10 ppm n-hexanal or 10 ppm 1-octen-3-ol. Taste intensity was determined in the sensory evaluation where the taste intensity of the 0.5% NaCl solution was set to 3.0. For comparison, sensory evaluation was also performed for a 0.8% and 0.6% concentration of aqueous NaCl solution. The sensory evaluation was evaluated as follows. The results are shown in Table 5. • 1.0: Much weaker • 2.0: Weaker • 3.0: Similar • 4.0: Stronger • 5.0: Much stronger

A short description of assay [4]: Sensory evaluation whether sucrose usage can be reduced. The settings on record: for Scores in sensory evaluation (taste intensity, sweetness): 1.5% sucrose solution = 3.0. The method, then: as §1
Evaluation was conducted to find whether sucrose usage can be reduced by the taste enhancing effects. To a 1.5% aqueous sucrose solution was added 10 ppm n-hexanal or 10 ppm 1-octen-3-ol. Taste intensity was determined in the sensory evaluation where the taste intensity of the 1.5% sucrose solution was set to 3.0. For comparison, sensory evaluation was also performed for a 2.0% and 1.8% concentration of aqueous sucrose solution. The sensory evaluation was evaluated as follows. The results are shown in Table 6. • 1.0: Much weaker • 2.0: Weaker • 3.0: Similar • 4.0: Stronger • 5.0: Much stronger

Assay [5] in a line: Sensory evaluation, intensity of umami in aqueous MSG solution. Conditions: additive-free = 3.0, scale 1.0-5.0.
Assay [6] in a line: Sensory evaluation, intensity of saltiness in aqueous NaCl solution. The settings on record: additive-free = 3.0, scale 1.0-5.0.
Assay [7] is described as follows: Sensory evaluation, intensity of sweetness in aqueous sucrose solution. Conditions: additive-free = 3.0. The method, then:
as §1, §2, §3, §4

Assay [8] is described as follows: Sensory evaluation, intensity of umami in aqueous MSG solution. Conditions: additive-free = 3.0. The method, then: as §1, §2, §3, §4
The nature of assay [9]: Sensory evaluation, intensity of saltiness in diluted soy sauce. The settings on record: 10 ppm in soy sauce diluted to 2% in water; aldehyde-free = 3.0; scale 1.0-5.0. The method, then:
as §1
(§5) Sensory evaluation was performed for “Intensity of Umani ” and “ Intensity of Saltiness “. The score of aldehyde-free taste intensity was set to 3.0, and taste intensity upon addition was evaluated as follows. The results are shown in Table 7. • 1.0: Much weaker • 2.0: Weaker • 3.0: Similar • 4.0: Stronger • 5.0: Much stronger

A short description of assay [10]: Sensory evaluation, intensity of umami in diluted soy sauce. The settings on record: 10 ppm in soy sauce diluted to 2% in water; aldehyde-free = 3.0; scale 1.0-5.0. The method, then: as §1, §5
The nature of assay [11]: Sensory evaluation, intensity of sweetness in whipped cream. Conditions: 100 ppm in whipped cream; aldehyde-free = 3.0; scale 1.0-5.0. The method, then: as §1
Sensory evaluation was performed for “Intensity of sweetness”. The score of aldehyde-free taste intensity was set to 3.0, and taste intensity upon addition was evaluated as follows. The results are shown in Table 8. • 1.0: Much weaker • 2.0: Weaker • 3.0: Similar • 4.0: Stronger • 5.0: Much stronger

The mark [12] stands for this setting: 1 ppm added to 0.8% NaCl, scale 1.0-5.0.
Setting [13] is: 10 ppm added to 0.8% NaCl, 1.0 much weaker to 5.0 much stronger.
[14] abbreviates: 10 ppm added to 1.5% aqueous sucrose solution.
Setting [15] is: 10 ppm added to 1.5% aqueous sucrose solution, scale 1.0-5.0.
The mark [16] stands for this setting: 1 ppm added to 2% sucrose, scale 1.0-5.0.
Where [17] appears, read: 10 ppm added to 2% sucrose, 1.0 much weaker to 5.0 much stronger.
The mark [18] stands for this setting: 1 ppm added to 0.2% MSG, scale 1.0-5.0.
[19] abbreviates: 10 ppm added to 0.2% MSG, 1.0 much weaker to 5.0 much stronger, mean of three individuals, nose clip.

The structures appear in SMILES notation.

For the molecule `C=CC(O)CCCCC` (stereo not shown) [Example 1-octen-3-ol, 1-octen-3-ol], the “Intensity of sweetness, Aqueous sucrose solution” value in [1] (0.01 ppm added to 2% sucrose) was 3.2; in [1] (0.1 ppm added to 2% sucrose), 3.2; in [1] (100 ppm added to 2% sucrose) it was 3.5; in assay [1] (1000 ppm added to 2% sucrose) it was 3.5; in assay [7] (setting [16]) it was 3.2; in assay [7] (setting [17]) it was 3.5. The “Intensity of saltiness, Aqueous NaCl solution” value in assay [2] (setting [12]) was found to be 3.5; in [2] (setting [13]), 3.5; in [6] (0.01 ppm added to 0.8% NaCl), 3.2; in [6] (0.1 ppm added to 0.8% NaCl), 3.5; in assay [6] (100 ppm added to 0.8% NaCl), 3.8; in assay [6] (1000 ppm added to 0.8% NaCl) it was 3.8. Moreover, in assay [3], the “Concentration of aqueous NaCl solution of similar saltiness intensity” value is given as around 0.6%. Besides, the “Scores in sensory evaluation (taste intensity, saltiness)” value in assay [3] came out at 3.5. For the same molecule, the “Concentration of aqueous sucrose solution of comparable/similar sweetness intensity” value in [4] (setting [14]) is around 1.8%. The “Scores in sensory evaluation (taste intensity, sweetness)” value (from here on “Scores … (taste intensity, sweetness)”) in assay [4] (setting [15]) turned out to be 3.5. The “Intensity of umami, Aqueous MSG solution” value in assay [5] (0.01 ppm added to 0.2% MSG) came to 3.2; in [5] (0.1 ppm added to 0.2% MSG), 3.2; in assay [5] (100 ppm added to 0.2% MSG) it was 3.8; in assay [5] (1000 ppm added to 0.2% MSG) it was 3.8; in assay [8] (setting [18]), 3.5; in assay [8] (setting [19]), 3.5.

Regarding `CCCCCC=O` [n-hexanal], the “Intensity of sweetness, Aqueous sucrose solution” value was 3.5 in [1] (0.001 ppm added to 2% sucrose); 3.8 in assay [1] (0.01 ppm added to 2% sucrose); 3.8 in assay [1] (0.1 ppm added to 2% sucrose); 4.5 in assay [1] (100 ppm added to 2% sucrose); 5.0 in assay [1] (1000 ppm added to 2% sucrose); 3.8 in assay [7] (setting [16]). For the same molecule, the “Intensity of sweetness, Aqueous sucrose solution” value in assay [7] (setting [17]) was determined as 4.5. Besides, the Intensity of saltiness in assay [9] amounted to 4.5. In addition, the “Intensity of saltiness, Aqueous NaCl solution” value in assay [2] (setting [12]) was 4.3; in [2] (setting [13]), 5.0; in assay [6] (0.001 ppm added to 0.8% NaCl), 3.5; in assay [6] (0.01 ppm added to 0.8% NaCl) it was 4.0; in [6] (0.1 ppm added to 0.8% NaCl) it was 4.2; in assay [6] (100 ppm added to 0.8% NaCl), 5.0. Also, in assay [6] (1000 ppm added to 0.8% NaCl), the “Intensity of saltiness, Aqueous NaCl solution” value stood at 5.0. For the same molecule, the Intensity of umami in assay [10] came out at 4.5. In addition, in [3], the “Concentration of aqueous NaCl solution of similar saltiness intensity” value was around 0.8%. Besides, in [3], the “Scores in sensory evaluation (taste intensity, saltiness)” value stood at 4.0. In addition, the “Concentration of aqueous sucrose solution of comparable/similar sweetness intensity” value in assay [4] (setting [14]) is on record as around 2.0%. For the same molecule, the “Scores … (taste intensity, sweetness)” value in assay [4] (setting [15]) came out at 4.0. Also, the “Intensity of umami, Aqueous MSG solution” value in [5] (0.001 ppm added to 0.2% MSG) was determined as 3.5; in assay [5] (0.01 ppm added to 0.2% MSG), 4.0; in [5] (0.1 ppm added to 0.2% MSG), 4.2; in [5] (100 ppm added to 0.2% MSG), 5.0; in assay [5] (1000 ppm added to 0.2% MSG), 5.0; in assay [8] (setting [18]), 4.3. Further, the “Intensity of umami, Aqueous MSG solution” value in [8] (setting [19]) is given as 5.0. In addition, in assay [11], the Intensity of sweetness came out at 4.5.

`OC[C@H]1O[C@@](CO)(O[C@H]2O[C@H](CO)[C@@H](O)[C@H](O)[C@H]2O)[C@@H](O)[C@@H]1O` [sucrose, reference compound]: the “Scores … (taste intensity, sweetness)” value in assay [4] (1.8% aqueous sucrose solution, nothing added, for comparison) is 3.5; in assay [4] (2.0% aqueous sucrose solution, nothing added, for comparison) it was 4.0.
